From patent US9320748B2, “Immunologically useful arginine salts” (Novartis AG, priority 2012, dated 2016)
Values joined by “and” are separate entries in the source; they are usually repeats but may differ in a detail not shown here. Equal entries are not always repeated. Structures can show the parent of a compound that is named as a salt.

Columns and labels:
[1] = Photo-stability of bulk solid; format: physicochemical; settings: irradiated 1.2 million lux-hours, 40° C., 36 hours
Experimental: The L-arginine salt formed via the above method was tested for thermal- and photo-stability. For comparative purposes, the free base and the ammonium salt were also tested.
The bulk ammonium and arginine salts and the bulk free base of the compound of formula (I) were tested for photo-stability by being irradiated (1.2 million lux-hours), at 40° C. for a period of 36 hours.

[2] = Photo-stability in 50 mM phosphate buffer solution; format: physicochemical; settings: 50 mM phosphate buffer pH 6.8; irradiated 1.2 million lux-hours, 40° C., 36 hours
Experimental: The L-arginine salt formed via the above method was tested for thermal- and photo-stability. For comparative purposes, the free base and the ammonium salt were also tested. The arginine salt and the bulk free base of the compound of formula (I) were also tested for photo-stability in a solution of 50 mM phosphate buffer (pH 6.8) by being irradiated (1.2 million lux-hours), at 40° C. for a period of 36 hours. […] The ammonium salt was not tested.

[3] = Adsorption to aluminium phosphate adjuvant; format: physicochemical
Experimental: Adsorption of a L-arginine salt of the compound of formula (I) to a commercially-available aluminium phosphate adjuvant yielded an adsorption efficiency of 97% (as found by recovering the compound of formula (I) on desorption). […] However, the adsorption remained >90% when the aluminium phosphate adjuvant was treated with 10 mM potassium phosphate.
One formulation was prepared with 0.4 mg/ml of the compound of formula (I) of the L-arginine salt and 3 mg/ml of aluminium phosphate (expressed as Al^3+ concentration), 10 mM of histidine buffer (pH 6.5). Aluminium phosphate was treated overnight with various concentrations of potassium phosphate (10 mM, 50 mM, 100 mM, 250 mM and 500 mM) before the compound of formula (I) of the arginine salt was incubated with the aluminium phosphate.

[4] = Thermal-stability at physiological pH; format: physicochemical; settings: for degradation (thermal-stability): physiological pH (7.4), 80° C., 7 days
Experimental: The L-arginine salt formed via the above method was tested for thermal- and photo-stability. For comparative purposes, the free base and the ammonium salt were also tested. The bulk ammonium and arginine salts and the bulk free base of the compound of formula (I) were also tested for thermal-stability at physiological pH (7.4) by heating at 80° C. for 7 days. […] This renders the ammonium salt unsuitable for use in pharmaceutical formulation and long term storage.

[5] = Adsorption to aluminium hydroxide (RP-HPLC); format: physicochemical; settings: 1 mg/ml on 3 mg/ml aluminium hydroxide
Experimental: The adsorption efficiency of the compound was determined by RP-HPLC as being 99%.

[6] = Adsorption to calcium phosphate adjuvant; format: physicochemical; settings: pH 6.4, no histidine buffer, 1.12 mg/ml Ca2+
Experimental: Adsorption of a L-arginine salt of the compound of formula (I) to a commercially-available calcium phosphate adjuvant was studied at pH 6.4, without histidine buffer. Two formulations are prepared, both with 1.12 mg/ml Ca^2+ but with either 0.25 mg/ml or 0.125 mg/ml of the arginine salt. Adsorption was around 90% for both formulations.

[7] = system: respiratory syncytial virus (RSV); assay: Anti-RSV titers after immunisation with trimeric F glycoprotein; format: in vivo, Balb/C mice; settings: 3 weeks after first dose; 1, 5, 50 μg SMIP adsorbed to Al—H, 3 μg F glycoprotein
Experimental: Trimeric F glycoprotein (3 μg) of respiratory syncytial virus (RSV) is formulated with the compound of formula (I) as a free base or as the arginine salt (1 μg, 5 μg, 50 μg) adsorbed to Al—H. For comparison the IC31™ adjuvant is also tested. Balb/C mice (6 per group) are immunized at days 0 and 21 and immune responses are assessed.

[8] = Dynamic vapour sorption (DVS) water sorption; format: physicochemical; settings: 90% relative humidity
Experimental: Dynamic vapour sorption (DVS) experiments were conducted on the L-arginine salt obtained via the above method. […] The free base is also shown for comparison (●). DSC analysis of the arginine salt following DVS treatment was also conducted and the results pre- (♦) and post-DVS (▪) treatment are shown in FIG. 4. The free base is also shown for comparison (●). […] No form change is noted by the XRPD.

in vivo = settings: mouse, im, 4 mg/kg
Experimental: A single dose of two different formulations (one containing the free base and the other the L-arginine salt of the compound of formula (I)) adsorbed to Al—H in 10 mM histidine buffer and in the presence of 3 MenB antigens were administered intramuscularly to mice at a dose of 4 mg/kg.

[9] = Effect of Al—H adsorption on serum peak and injection-site residence; format: in vivo; settings: adsorbed on Al—H versus non-adsorbed; mice and rats
Description: Adsorption of the compound of formula (I) on Al—H reduced its peak serum concentrations and increased residence times at sites of intramuscular injection, as found for mice and rats preclinical species. This contributes greatly on modifying and controlling the level of systemic exposure avoiding the potential problem of proinflammatory cytokines in the blood, improving safety and/or tolerability of the compounds of formula (I).

Structure (SMILES): Cc1cc(OCCOCCOCCP(=O)(O)O)ccc1CCc1cnc2c(N)nc3cc(CCC(=O)O)ccc3c2c1 [ammonium salt]
- degradation (photo-stability) [1]: 4.6%

Structure (SMILES): Cc1cc(OCCOCCOCCP(=O)(O)O)ccc1CCc1cnc2c(N)nc3cc(CCC(=O)O)ccc3c2c1 [arginine salt, arginine salt of 3-(5-amino-2-(2-methyl-4-(2-(2-(2-phosphonoethoxyl)ethoxy)ethoxy)phenethyl)benzo[f][1,7]naphthyridin-8-yl)propanoic acid]
- degradation (photo-stability in solution) [2]: 9.8%
- % Adsorption ([3]; aluminium phosphate pre-treated with 10 mM potassium phosphate, listed as L-arginine salt): 93 ± 1%
- % Adsorption ([3]; aluminium phosphate pre-treated with 50 mM potassium phosphate): 81.6 ± 0.1%
- % Adsorption ([3]; aluminium phosphate pre-treated with 100 mM potassium phosphate): 60 ± 2%
- % Adsorption ([3]; aluminium phosphate pre-treated with 250 mM potassium phosphate): 52 ± 0.1%
- % Adsorption ([3]; aluminium phosphate pre-treated with 500 mM potassium phosphate): 65 ± 4%
- % Adsorption ([3]; aluminium phosphate, no potassium phosphate pre-treatment (0 mM), 0.4 mg/ml compound, 3 mg/ml Al3+, 10 mM histidine pH 6.5, listed as L-arginine salt): 97% and 97 ± 1%
- stability at high temperatures, compared with other form ([4]; high temperatures (80° C.), as in autoclaving): more stable than the ammonium salt
- degradation (thermal-stability) [4]: 0.1%
- adsorption efficiency [5]: 99%
- Adsorption ([6]; 0.125 mg/ml arginine salt): around 90%
- Adsorption ([6]; 0.25 mg/ml arginine salt): around 90%
- anti-RSV titers versus Al—H alone [7]: increased compared to Al—H alone
- anti-RSV titers, arginine salt versus free base [7]: slightly higher titers than the free base
- water taken on (DVS) [8]: approximately 18%
- water taken on (DVS) ([8]; 4 g sample): approximately 13.71%
- degradation (photo-stability) [1]: 9.7%

Structure (SMILES): Cc1cc(OCCOCCOCCP(=O)(O)O)ccc1CCc1cnc2c(N)nc3cc(CCC(=O)O)ccc3c2c1 [free base, 3-(5-amino-2-(2-methyl-4-(2-(2-(2-phosphonoethoxy)ethoxy)ethoxy)phenethyl)benzo[f][1,7]naphthyridin-8-yl)propanoic acid]
- degradation (photo-stability in solution) [2]: 23.1%
- degradation (thermal-stability) [4]: 18.1%
- AUC(0-t) (in vivo): 4.54 µM·h
- Cmax (in vivo): 0.453 µM
- Tmax (in vivo): 0.67 h
- half-life (in vivo): 8.48 h
- anti-RSV titers versus Al—H alone [7]: increased compared to Al—H alone
- peak serum concentrations [9]: reduced
- residence times at sites of intramuscular injection [9]: increased
- degradation (photo-stability) [1]: 12.36%
